From patent US20100099757A1, “DISULFIRAM DOSES AND TREATMENT REGIMEN SUITABLE FOR TREATMENT OF ANGIOGENESIS-DEPENDENT DISORDERS” (priority 2006, published 2010)

How the values were obtained:
[1] = tested on: acetaldehyde dehydrogenase; settings: cited from earlier work
[2] = tested on: bovine capillary endothelial (BCE) cells; settings: cited from earlier work
Lewis lung carcinoma = settings: oral administration to mice; cited from earlier work
[3] = tested on: human malignant cell lines; settings: combination of disulfuram and metal ions, in vitro; cited from earlier work
[4] = tested on: advanced stage IV metastatic melanoma; settings: daily 250-500 mg disulfuram and 50 mg zinc gluconate; three months from onset of therapy; cited from earlier work
[5] = biological target: Cu/Zn Suproxide dismutase (SOD-1) (Homo sapiens, UniProt P00441); settings: both in vivo and in vitro; cited from earlier work
Chain of Cu/Zn Suproxide dismutase (SOD-1) (P00441 whole entry, species assumed): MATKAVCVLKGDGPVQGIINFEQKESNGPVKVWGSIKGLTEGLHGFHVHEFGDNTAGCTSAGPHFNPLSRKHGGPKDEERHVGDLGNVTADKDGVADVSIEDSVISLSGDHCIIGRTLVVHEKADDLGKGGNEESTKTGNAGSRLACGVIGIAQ

[6] = tested on: non-small cell lung cancer; test: Phase II trial of disulfuram with Cisplatin/Vinorelbine in non-small cell lung cancer; type: in vivo; settings: 120 mg daily (40 mg three times a day) for eighteen weeks, human patients
Text: A phase II, multicenter, randomized, double blind study was designed to assess the dose response of humans suffering from lung cancer to Disulfuram or a disulfuram-Cisplatin/Vinorelbine combination. Patients with histogically or cytologically documented advanced (i.e. stage Mb or stage IV), or recurrent non-small cell lung cancer, previously untreated with systemic anti-tumor therapy were selected for the study. The patients were randomly assigned to the standard first line hospital chemotherapy treatment (Cisplatin/Vinorelbine) with placebo or Cisplatin/Vinorelbine in combination with disulfuram. Treatment was provided in cycles of 21-day time periods until progression or for a maximum of 6 cycles.
The patients were further assessed for overall survival, time to progression and duration of response.
Standard administration regimens for cisplatin and Vinorelbine were followed.
Placebo capsules included the lactose carrier but were devoid of disulfuram. Each patient received the disulfuram or placebo from the treating physician.

[7] = oral DSF, cited from earlier work
angiogenesis = settings: oral administration, CD1 nude mice; cited from earlier work
cancer = settings: cited from earlier work
C6 glioma tumor = settings: oral administration to mice; cited from earlier work
[8] = cited from earlier work
aldehyde dehydrogenase = biological target: T1, aldehyde dehydrogenase (Rattus norvegicus, UniProt P11884); settings: cited from earlier work
T1 sequence (P11884 20-519): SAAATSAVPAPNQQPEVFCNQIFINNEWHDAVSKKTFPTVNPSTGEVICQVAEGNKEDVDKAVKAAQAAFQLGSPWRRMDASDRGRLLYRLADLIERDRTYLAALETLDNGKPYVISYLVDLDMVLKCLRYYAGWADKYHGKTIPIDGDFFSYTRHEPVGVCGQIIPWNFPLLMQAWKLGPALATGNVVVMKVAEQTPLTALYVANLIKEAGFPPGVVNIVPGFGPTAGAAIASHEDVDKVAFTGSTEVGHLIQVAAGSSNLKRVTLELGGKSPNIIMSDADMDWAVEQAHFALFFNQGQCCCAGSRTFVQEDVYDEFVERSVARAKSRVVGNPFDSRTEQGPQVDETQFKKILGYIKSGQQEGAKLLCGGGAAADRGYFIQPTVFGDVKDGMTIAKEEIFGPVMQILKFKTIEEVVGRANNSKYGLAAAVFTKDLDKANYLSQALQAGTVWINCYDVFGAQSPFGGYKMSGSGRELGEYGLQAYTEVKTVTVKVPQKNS

[9] = cultured BCE cells, prevented by copper and antioxidants

Compound: CCN(CC)C(=S)SSC(=S)N(CC)CC [disulfuram, bis(diethylthiocarbamoyl) disulfide]
- concentration of acetaldehyde in the blood versus same amount of alcohol alone ([1]; after alcohol intake under the influence of disulfuram): 5 to 10 times higher
- onset of effect ([1]; single dose unit): 1 to 2 h
- time of peak effect ([1]; single dose unit): about 12 hours
- time effect is sustained ([1]; single dose unit, depends on liver enzymes): 12 to 72 h
- duration of effects of a single dose in some individuals ([1]; single dose, some individuals): up to 2 weeks
- level of glutathione ([2]; BCE cells): reduced the level of glutathione
- DNA synthesis [2, 9]: inhibition of DNA synthesis
- apoptosis [2, 9]: induction of apoptosis
- reduction in the metastatic load of Lewis lung carcinoma (Lewis lung carcinoma): 10-19 fold
- proliferation of human malignant cell lines [3]: inhibited the proliferation
- reduction in tumor size [4]: > 50%
- activity of Cu/Zn Suproxide dismutase (SOD-1) [5]: inhibits activity
- time to progression and survival of non-small cell lung cancer [6]: extending time to progression and survival
- T1/2 ([7]; elimination kinetics): 7.3 h
- average time to reach maximum plasma concentration [7]: 8 to 10 h
- angiogenesis (angiogenesis): inhibited angiogenesis
- response rate, time to progression, or median survival (cancer; about 2000 mg/subject disulfuram with 100 mg/m2 cisplatin once every 3-4 weeks, versus cisplatin alone): no statistically-significant difference
- gastrointestinal and ototoxicities (cancer; about 2000 mg/subject disulfuram with 100 mg/m2 cisplatin): enhanced
- C6 glioma tumor development (C6 glioma tumor): significant inhibition
- soluble in alcohol ([8]; alcohol): about 3.8 g in 100 ml
- soluble in water ([8]; water): about 20 mg in 100 ml

Compound: CCN(CC)C(=O)SC [Me-DTC, diethylthiomethylcarbamate]
- inhibition of aldehyde dehydrogenase (aldehyde dehydrogenase): most powerful irreversible inhibitor
